The target in the experiment is T1, glucan synthase (GS) (Candida albicans, UniProt O13428).
T1 construct: Extraction of GS activity from membranes was performed at a protein concentration of 5 mg/mL in extraction buffer; endogenous in cells; host or cells: Candida albicans MY1055 (membrane fraction, detergent extraction, product entrapment)
T1 sequence (O13428 1-1897): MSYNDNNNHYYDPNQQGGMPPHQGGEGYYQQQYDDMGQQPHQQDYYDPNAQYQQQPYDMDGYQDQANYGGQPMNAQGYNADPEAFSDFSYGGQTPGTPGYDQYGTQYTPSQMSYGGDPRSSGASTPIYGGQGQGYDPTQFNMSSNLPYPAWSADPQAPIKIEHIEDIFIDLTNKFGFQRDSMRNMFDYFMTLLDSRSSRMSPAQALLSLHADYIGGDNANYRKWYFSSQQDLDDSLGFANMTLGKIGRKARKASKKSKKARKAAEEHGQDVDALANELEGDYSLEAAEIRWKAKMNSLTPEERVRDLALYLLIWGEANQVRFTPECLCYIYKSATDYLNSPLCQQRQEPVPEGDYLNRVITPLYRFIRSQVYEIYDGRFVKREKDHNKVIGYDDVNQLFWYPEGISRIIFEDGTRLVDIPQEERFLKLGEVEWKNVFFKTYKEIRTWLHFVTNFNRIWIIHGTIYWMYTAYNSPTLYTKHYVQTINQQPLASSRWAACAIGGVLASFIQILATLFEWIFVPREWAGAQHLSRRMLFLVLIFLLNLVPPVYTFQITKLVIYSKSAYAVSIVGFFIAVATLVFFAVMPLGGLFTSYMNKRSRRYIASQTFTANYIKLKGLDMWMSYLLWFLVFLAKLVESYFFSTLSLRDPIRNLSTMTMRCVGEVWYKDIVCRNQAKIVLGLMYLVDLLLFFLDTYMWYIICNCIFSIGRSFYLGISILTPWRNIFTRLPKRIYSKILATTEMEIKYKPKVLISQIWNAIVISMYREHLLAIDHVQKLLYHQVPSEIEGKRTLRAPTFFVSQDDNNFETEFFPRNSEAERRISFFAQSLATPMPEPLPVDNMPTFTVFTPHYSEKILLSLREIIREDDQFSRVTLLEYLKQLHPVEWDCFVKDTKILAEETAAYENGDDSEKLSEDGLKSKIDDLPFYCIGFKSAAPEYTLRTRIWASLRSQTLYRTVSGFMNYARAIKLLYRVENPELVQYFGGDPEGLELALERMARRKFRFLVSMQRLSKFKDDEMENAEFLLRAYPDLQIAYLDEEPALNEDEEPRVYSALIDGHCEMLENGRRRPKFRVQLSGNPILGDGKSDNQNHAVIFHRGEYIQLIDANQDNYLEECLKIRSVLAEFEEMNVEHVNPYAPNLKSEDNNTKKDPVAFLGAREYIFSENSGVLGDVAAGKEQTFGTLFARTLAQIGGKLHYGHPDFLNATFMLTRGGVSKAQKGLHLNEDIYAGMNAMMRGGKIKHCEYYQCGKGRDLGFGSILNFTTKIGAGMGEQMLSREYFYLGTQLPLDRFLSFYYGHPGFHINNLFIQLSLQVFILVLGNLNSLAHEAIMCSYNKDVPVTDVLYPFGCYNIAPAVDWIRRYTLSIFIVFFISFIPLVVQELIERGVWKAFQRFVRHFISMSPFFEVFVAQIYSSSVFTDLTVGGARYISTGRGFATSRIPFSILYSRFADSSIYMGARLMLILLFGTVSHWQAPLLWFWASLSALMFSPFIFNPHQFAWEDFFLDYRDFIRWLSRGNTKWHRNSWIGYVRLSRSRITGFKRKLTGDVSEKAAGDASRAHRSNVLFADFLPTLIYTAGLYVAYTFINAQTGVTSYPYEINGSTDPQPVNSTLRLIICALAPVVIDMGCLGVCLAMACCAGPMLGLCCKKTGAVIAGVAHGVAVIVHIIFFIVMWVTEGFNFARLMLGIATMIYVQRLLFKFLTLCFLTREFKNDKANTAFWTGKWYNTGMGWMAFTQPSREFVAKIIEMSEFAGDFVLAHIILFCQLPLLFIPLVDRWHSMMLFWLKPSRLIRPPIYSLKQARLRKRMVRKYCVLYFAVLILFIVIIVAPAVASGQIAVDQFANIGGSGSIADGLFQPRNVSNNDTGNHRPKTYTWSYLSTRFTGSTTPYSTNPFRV
T1 sequence (O42825 1-195 partner limits assumed): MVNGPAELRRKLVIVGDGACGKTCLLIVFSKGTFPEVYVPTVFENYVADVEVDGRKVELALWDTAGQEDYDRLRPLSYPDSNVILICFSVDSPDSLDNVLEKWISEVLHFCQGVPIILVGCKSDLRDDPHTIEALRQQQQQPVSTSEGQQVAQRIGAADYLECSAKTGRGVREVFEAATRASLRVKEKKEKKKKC
The experiment in a line: Glucan synthase inhibition (polymerization assay, 96-well). The following applies: glucan synthase prepared from Candida albicans MY1055; 60 min incubation at 22° C.; read-out: Candida Albicans GS IC50 (ng/mL) (converted). In kind it is biochemical. On the procedure:
The in vitro evaluation of glucan synthase inhibitory activity of compounds was measured in a polymerization assay in 96-well format. Each well contained 100 μL of ^3H-UDPG at 0.5 mM (6000 to 8000 dpm/nmol), 50 mM HEPES pH 7.5 (Sigma), 10% w/v glycerol (Sigma), 1.5 mg/mL bovine serum albumin (Sigma A 9647. Lot 44H0190), 25 mM KF (Fisher), 1 mM EDTA (Gibco ULTRAPURE), 25 μM GTP-γ-S, enzyme sufficient to give 3 to 6 nmoles incorporation during the 60 min incubation at 22° C., and test compound added from wells in 3-fold serial dilutions in 100% DMSO (1 μL/well). The reaction was stopped by the addition of 100 μL of 20% trichloroacetic acid. Plates were chilled for a minimum of 10 min, and precipitated glucan collected by filtration on GF/C plates (Packard UNIFILTER®-96), washed with 5 cycles of water (about 1 mL/well each cycle) using a Packard FILTERMATE HARVESTER. 40 μL/well scintillation fluid (Packard ULTIMA GOLD TM-XR) was added and the sealed plates counted in a WALLAC BETA counter in top-counting mode at an efficiency of approximately 40%.
Stock solutions were stored at 10 mg/mL in DMSO at −20° C. For each new enzyme preparation, the initial titration performed started at 1 mg/mL, which was prepared by making a 10-fold dilution in DMSO (5 μL to 50 μL). 40 μL of this stock was placed in column 12 of a round-bottomed 96-well microtiter plate. 40 μL DMSO was added to columns 1 to 11 in the same row and ten 3-fold serial dilutions performed, by transferring 20 μL from column 12 to column 11 etc., with 4 mixings before each transfer. No test compound was transferred to from column 2 to column 1. Duplicate aliquots of 1 μL of all 12 dilutions were then transferred to the side walls of a 96-well Bioblock 1.1 mL plate (Fisher brand) to create two rows. Graphs of the primary data were created in PRISM software (the average of two determinations) using PRISM's curve fitting program (sigmoidal dose response non-linear regression). The amount of compound required to inhibit glucan synthase activity by 50% in this assay (IC50-ng/mL) was calculated.
Routine analysis was performed with glucan synthase (GS) prepared from Candida albicans MY1055 by the following procedure: MY1055 was grown in 10 liters YPD medium (10 g yeast extract, 20 g tryptone, 20 g glucose per liter) with vigorous shaking at 30° C., to early stationary phase. Cells were harvested by centrifugation, the pellet was washed and frozen at −70° C. until breakage. Thawed pellets were shaken with an equal volume of breakage buffer (50 mM HEPES pH 7.4, 10% glycerol, 1 mM EDTA, 1 mM PMSF, 1 mM DTT) and 4 times their weight of 0.5 mm acid washed glass beads for 2 hours at 4° C. Extent of breakage was assessed visually at 40× magnification. After low speed centrifugation to remove cell debris, the supernatant was centrifuged at 100,000×g for 60 min. to separate membranes plus ribosomes from cytoplasmic components. Membranes were further washed two additional times with breakage buffer using the same centrifugation conditions and finally suspended in breakage buffer at 25 to 30 mg/mL protein (Biorad) for storage at −70° C. Extraction of GS activity from membranes was performed at a protein concentration of 5 mg/mL in extraction buffer (50 mM NaPO4 pH 7.5, 0.1 M KCl, 0.1M Na citrate, 20% glycerol, 5 μM GTP-γ-S, 1 mM DTT, 1 mM PMSF, 3 μg/mL pepstatin) plus 0.25% W1 by gentle mixing at 4° C. for 60 min, followed by centrifugation at 100,000×g for 60 min. After centrifugation, clear supernatant was removed from a pellet consisting of a hard layer usually with small amounts of gelatinous unextracted membranes above it.
Trapping was initiated immediately by 5-fold dilution in trapping buffer (50 mM HEPES pH 7.5, 10 mM KF, 1 mM EDTA, 2 mg/mL BSA) plus 2.5 mM UDPG and 10 μM GTP-γ-S. After incubation at 25° C. for 60 to 90 minutes, glucan was harvested by low speed centrifugation (3,000×g, 10 min). […]
Take `CC(C)[C@@H](C)[C@@]1(C)CC[C@]2(C)[C@H]3CC[C@@H]4[C@@]5(COC[C@@]4(C)[C@@H](OC[C@H](N)C(C)(C)C)[C@H](n4nnc(N)n4)C5)C3=CC[C@@]2(C)[C@@H]1C(=O)O` [Example 22, (1S,4aR,6aS,7R;8R,10aR,10bR,12aR,14R,15R)-15-[[(2R)-2-amino-3,3-dimethylbutyl]oxy]-14-(5-amino-2H-tetrazol-2-yl)-8-[(1R)-1,2-dimethylpropyl]-1,6,6a,7,8,9,10,10a,10b,11,12,12a-dodecahydro-1,6a,8,10a-tetramethyl-4H-1,4a-propano-2H-phenanthro[1,2-c]pyran-7-carboxylic acid]: the IC50 is 6.11 nM.
Turning to `CCC(N)(CC)CO[C@H]1[C@H](n2nnc(N)n2)C[C@@]23COC[C@]1(C)[C@@H]2CC[C@H]1C3=CC[C@@]2(C)[C@H](C(=O)O)[C@@](C)([C@H](C)C(C)C)CC[C@]12C` [Example 23, (1S,4aR,6aS,7R,8R,10aR,10bR,12aR,14R,15R)-15-(2-amino-2-ethylbutoxy)-14-(5-amino-2H-tetrazol-2-yl)-8-[(1R)-1,2-dimethylpropyl]-1,6,6a,7,8,9,10,10a,10b,11,12,12a-dodecahydro-1,6a,8,10a-tetramethyl-4H-1,4a-propano-2H-phenanthro[1,2-c]pyran-7-carboxylic acid], the IC50 is 7.63 nM.
The same measure for `CC(C)[C@@H](C)[C@@]1(C)CC[C@]2(C)[C@H]3CC[C@@H]4[C@@]5(COC[C@@]4(C)[C@@H](OCCC4(N)CCCC4)[C@H](n4nnc(N)n4)C5)C3=CC[C@@]2(C)[C@@H]1C(=O)O` [Example 25, (1S,4aR,6aS,7R,8R,10aR,10bR,12aR,14R,15R)-15-[2-(1-aminocyclopentyl)ethoxy]-14-(5-amino-2H-tetrazol-2-yl)-8-[(1R)-1,2-dimethylpropyl]-1,6,6a,7,8,9,10,10a,10b,11,12,12a-dodecahydro-1,6a,8,10a-tetramethyl-4H-1,4a-propano-2H-phenanthro[1,2-c]pyran-7-carboxylic acid]: 40.5 nM; for `CNC1(CO[C@H]2[C@H](n3nnc(N)n3)C[C@@]34COC[C@]2(C)[C@@H]3CC[C@H]2C4=CC[C@@]3(C)[C@H](C(=O)O)[C@@](C)([C@H](C)C(C)C)CC[C@]23C)CCOCC1` [Example 27, (1S,4aR,6aS,7R,8R,10aR,10bR,12aR,14R,15R)-14-(5-amino-2H-tetrazol-2-yl)-8-[(1R)-1,2-dimethylpropyl]-15-[[tetrahydro-4-(methylamino)-2H-pyran-4-yl]methoxy]-1,6,6a,7,8,9,10,10a,10b,11,12,12a-dodecahydro-1,6a,8,10a-tetramethyl-4H-1,4a-propano-2H-phenanthro[1,2-c]pyran-7-carboxylic acid]: 5.86 nM.
With `CC(C)[C@@H](C)[C@@]1(C)CC[C@]2(C)[C@H]3CC[C@@H]4[C@@]5(COC[C@@]4(C)[C@@H](OCC4(N)CCSCC4)[C@H](n4nnc(N)n4)C5)C3=CC[C@@]2(C)[C@@H]1C(=O)O` [Example 30, (1S,4aR,6aS,7R,8R,10aR,10bR,12aR,14R,15R)-15-[(4-aminotetrahydro-2H-thiopyran-4-yl)methoxy]-14-(5-amino-2H-tetrazol-2-yl)-8-[(1R)-1,2-dimethylpropyl]-1,6,6a,7,8,9,10,10a,10b,11,12,12a-dodecahydro-1,6a,8,10a-tetramethyl-4H-1,4a-propano-2H-phenanthro[1,2-c]pyran-7-carboxylic acid], the IC50 was 2.92 nM.
For `CNC1(CO[C@H]2[C@H](n3nnc(N)n3)C[C@@]34COC[C@]2(C)[C@@H]3CC[C@H]2C4=CC[C@@]3(C)[C@H](C(=O)O)[C@@](C)([C@H](C)C(C)C)CC[C@]23C)CCCCC1` [Example 32, (1S,4aR,6aS,7R,8R,10aR,10bR,12aR,14R,15R)-14-(5-amino-2H-tetrazol-2-yl)-8-[(1R)-1,2-dimethylpropyl]-15-[[1-(methylamino)cyclohexyl]methoxy]-1,6,6a,7,8,9,10,10a,10b,11,12,12a-dodecahydro-1,6a,8,10a-tetramethyl-4H-1,4a-propano-2H-phenanthro[1,2-c]pyran-7-carboxylic acid], the IC50 is 11.7 nM.
With `CC(C)[C@@H](C)[C@@]1(C)CC[C@]2(C)[C@H]3CC[C@@H]4[C@@]5(COC[C@@]4(C)[C@@H](OCCNCCCN(C)C)[C@H](n4nnc(N)n4)C5)C3=CC[C@@]2(C)[C@@H]1C(=O)O` [Example 36, (1S,4aR,6aS,7R,8R,10aR,10bR,12aR,14R,15R)-14-(5-amino-2H-tetrazol-2-yl)-15-[2-[[3-(dimethylamino)propyl]amino]ethoxy]-8-[(1R)-1,2-dimethylpropyl]-1,6,6a,7,8,9,10,10a,10b,11,12,12a-dodecahydro-1,6a,8,10a-tetramethyl-4H-1,4a-propano-2H-phenanthro[1,2-c]pyran-7-carboxylic acid], the IC50 is 8.77 nM.
Regarding `CC(=O)Nc1nnnn1[C@@H]1C[C@@]23COC[C@](C)([C@@H]2CC[C@H]2C3=CC[C@@]3(C)[C@H](C(=O)O)[C@@](C)([C@H](C)C(C)C)CC[C@]23C)[C@H]1OC[C@](C)(N)C(C)C` [Example 38A, (1S,4aR,6aS,7R,8R,10aR,10bR,12aR,14R,15R)-14-[5-(acetylamino)-1H-tetrazol-1-yl]-15-[[(2R)-2-amino-2,3-dimethylbutyl]oxy]-8-[(1R)-1,2-dimethylpropyl]-1,6,6a,7,8,9,10,10a,10b,11,12,12a-dodecahydro-1,6a,8,10a-tetramethyl-4H-1,4a-propano-2H-phenanthro[1,2-c]pyran-7-carboxylic acid], the IC50 is 81.8 nM.
`CN[C@@](C)(CO[C@H]1[C@H](n2nnc(NC(C)=O)n2)C[C@@]23COC[C@]1(C)[C@@H]2CC[C@H]1C3=CC[C@@]2(C)[C@H](C(=O)O)[C@@](C)([C@H](C)C(C)C)CC[C@]12C)C(C)C` [Example 39B, (1S,4aR,6aS,7R,8R,10aR,10bR,12aR,14R,15R)-14-[5-(acetylamino)-2H-tetrazol-2-yl]-15-[[(2R)-2,3-dimethyl-2-(methylamino)butyl]oxy]-8-[(1R)-1,2-dimethylpropyl]-1,6,6a,7,8,9,10,10a,10b,11,12,12a-dodecahydro-1,6a,8,10a-tetramethyl-4H-1,4a-propano-2H-phenanthro[1,2-c]pyran-7-carboxylic acid]: the IC50 was 15.5 nM.
Take `Cc1nnnn1[C@@H]1C[C@@]23COC[C@](C)([C@@H]2CC[C@H]2C3=CC[C@@]3(C)[C@H](C(=O)O)[C@@](C)([C@H](C)C(C)C)CC[C@]23C)[C@H]1OCCN` [Example 41A, (1S,4aR,6aS,7R,8R,10aR,10bR,12aR,14R,15R)-15-(2-aminoethoxy)-8-[(1R)-1,2-dimethylpropyl]-14-(5-methyl-1H-tetrazol-1-yl)-1,6,6a,7,8,9,10,10a,10b,11,12,12a-dodecahydro-1,6a,8,10a-tetramethyl-4H-1,4a-propano-2H-phenanthro[1,2-c]pyran-7-carboxylic acid]: the IC50 is 199 nM.

For the origin of these results see patent US8722727B2, “Antifungal agents” (Seynix, Inc., priority 2008, dated 2014).
